# The supplement of paper PMC10307832
# Experiments:
# Assay in all cases: relative viability (nuclei count vs DMSO), 5 days (fraction); higher = more cells survive
# [1] = compound: Cc1nc(C(=O)NCC(=O)O)c(O)c2ccc(Oc3ccccc3)cc12 [FG-4592] + COc1cc2c(Oc3ccc(NC(=O)C4(C(=O)Nc5ccc(F)cc5)CC4)cc3F)ccnc2cc1OCCCN1CCOCC1 [Foretinib] (partner 0.25 µM)
# Summary of the method: (§1)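 Values are medians from duplicate plates. Each reflects relative viability, defined as the nuclei count of treated wells over that of vehicle wells. Lung cancer cell lines in 1536-well plates were pin-tool dosed one day after seeding with one drug alone or with a fixed anchor-drug dose plus five library-drug doses (not always all listed) in √10 steps, then fixed, stained and imaged at 4× after 5 days.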
# [2] = compound: CC1=CC(=C(N1C2=CC=C(C=C2)Cl)C)C(=O)CN3CCCCC3 [IU1-47] + Cc1nc(Nc2ncc(C(=O)Nc3c(C)cccc3Cl)s2)cc(N2CCN(CCO)CC2)n1 [Dasatinib] (partner 0.075 µM)
# Summary of the method: as §1
# [3] = compound: Cc1nc(C(=O)NCC(=O)O)c(O)c2ccc(Oc3ccccc3)cc12 [FG-4592] + CC(=O)Nc1cccc(-n2c(=O)n(C3CC3)c(=O)c3c(Nc4ccc(I)cc4F)n(C)c(=O)c(C)c32)c1 [Trametinib] (partner 0.02 µM)
# Summary of the method: as §1
# [4] = compound: CC1=CC(=C(N1C2=CC=C(C=C2)Cl)C)C(=O)CN3CCCCC3 [IU1-47] + CC(C)C[C@H](NC(=O)[C@H](Cc1ccccc1)NC(=O)c1cnccn1)B(O)O [Bortezomib] (partner 0.002 µM)
# Summary of the method: as §1
Cell Line,relative viability ([1]; first compound 0.08 µM),relative viability ([1]; first compound 0.253 µM),relative viability ([1]; first compound 0.8 µM),relative viability ([1]; first compound 2.53 µM),relative viability ([1]; first compound 8 µM),relative viability ([2]; first compound 0.08 µM),relative viability ([2]; first compound 0.253 µM),relative viability ([2]; first compound 0.8 µM),relative viability ([2]; first compound 8 µM),relative viability ([3]; first compound 0.08 µM),relative viability ([3]; first compound 0.253 µM),relative viability ([3]; first compound 0.8 µM),relative viability ([3]; first compound 2.53 µM),relative viability ([3]; first compound 8 µM),relative viability ([4]; first compound 0.08 µM),relative viability ([4]; first compound 0.253 µM),relative viability ([4]; first compound 0.8 µM),relative viability ([4]; first compound 8 µM),relative viability ([2]; first compound 2.53 µM),relative viability ([4]; first compound 2.53 µM)
NCI-H1915,1.09,1.06,1.22,1.12,1,0.318,0.3,0.334,0.306,0.304,0.266,0.274,0.287,0.258,1.02,1.05,1.04,1.02,,
NCI-H2023,0.792,0.79,0.885,0.854,0.742,0.564,0.521,0.657,0.55,0.488,0.595,0.612,0.593,0.506,0.94,1.15,1,1.12,0.347,0.481
COR-L 105,0.817,1.06,1.2,0.96,0.718,0.307,0.303,0.332,0.307,0.45,0.461,0.445,0.434,0.397,1.23,1.01,0.851,0.708,0.248,0.899
RERF-LC-KJ,0.853,0.868,0.817,0.888,0.771,0.926,0.947,0.817,0.781,0.841,0.848,0.763,0.876,0.857,1.16,1.18,1.12,1.06,0.877,1.14
LXF-289,0.97,0.981,0.993,0.974,1.12,0.219,0.24,0.179,0.209,0.676,0.68,0.682,0.712,0.731,0.993,1.06,1.05,0.954,0.223,1.05
PC-14,1.09,0.997,1,0.965,0.987,0.223,0.257,0.209,0.205,0.708,0.717,0.71,0.833,0.496,1.12,0.833,0.957,0.697,0.226,0.942
NCI-H650,0.997,0.961,0.882,0.991,0.861,0.457,0.439,0.476,0.445,1.06,0.936,0.916,1,0.838,0.908,0.811,0.952,0.681,0.427,0.742
NCI-H1666,0.907,0.865,0.939,0.963,0.837,0.79,0.806,0.761,0.676,0.88,0.856,0.922,0.776,0.711,0.811,0.831,0.926,0.727,0.793,0.728
NCI-H2085,0.837,0.696,0.927,0.784,0.881,0.218,0.269,0.242,0.252,0.48,0.539,0.718,0.629,0.516,0.969,0.968,1.06,0.944,0.228,0.948
NCI-H1734,0.792,0.812,0.806,0.884,0.75,0.493,0.531,0.461,0.406,0.719,0.631,0.618,0.733,0.559,0.936,0.93,0.906,0.874,,
NCI-H2126,1.14,1.13,1.16,1.09,1.15,0.596,0.717,0.724,0.601,0.586,0.576,0.455,0.534,0.476,1.17,1.18,1.19,1.04,,0.894
EMC-BAC-2,0.997,0.995,1.01,1.06,0.977,0.373,0.336,0.356,0.326,0.939,0.892,,0.845,0.88,1.09,1.07,1.04,1.04,0.324,1.15
NCI-H1993,0.783,0.582,0.781,0.828,0.747,0.497,0.732,0.651,0.571,0.556,0.516,,0.479,0.507,1.26,1.25,1.18,1.18,0.548,1.37
NCI-H520,0.497,0.639,0.674,0.868,0.605,0.197,0.172,0.203,0.166,0.594,0.557,0.573,0.719,0.473,0.679,0.687,0.821,0.408,0.217,0.576
NCI-H647,1.19,1.07,1.18,0.815,0.782,0.171,0.179,,0.177,0.444,0.453,0.336,0.448,0.333,0.97,0.904,1.08,0.862,0.155,0.859
SK-LU-1,0.866,0.646,0.767,0.881,0.631,0.208,0.187,0.182,0.159,0.402,0.395,0.461,0.422,0.379,1.22,1.2,1.4,1.05,0.18,1.03
ChaGo-K-1,0.997,0.834,0.919,0.973,0.897,0.524,0.557,0.707,0.544,0.953,0.79,0.899,0.846,0.931,0.953,0.971,0.952,0.682,0.643,1.27

Cell Line,relative viability ([1]; first compound 0.08 µM),relative viability ([1]; first compound 0.253 µM),relative viability ([1]; first compound 0.8 µM),relative viability ([1]; first compound 2.53 µM),relative viability ([1]; first compound 8 µM),relative viability ([2]; first compound 0.08 µM),relative viability ([2]; first compound 0.253 µM),relative viability ([2]; first compound 0.8 µM),relative viability ([2]; first compound 8 µM),relative viability ([3]; first compound 0.08 µM),relative viability ([3]; first compound 0.253 µM),relative viability ([3]; first compound 0.8 µM),relative viability ([3]; first compound 2.53 µM),relative viability ([3]; first compound 8 µM),relative viability ([4]; first compound 0.08 µM),relative viability ([4]; first compound 0.253 µM),relative viability ([4]; first compound 0.8 µM),relative viability ([4]; first compound 8 µM),relative viability ([2]; first compound 2.53 µM),relative viability ([4]; first compound 2.53 µM)
NCI-H1650,1.24,0.903,1.21,1.33,1.04,0.269,0.311,0.283,0.27,0.604,0.573,0.615,0.603,0.628,0.194,0.171,0.22,0.195,0.292,0.203
NCI-H2009,1.21,1.11,1.13,1.14,1.11,0.257,0.263,0.293,0.241,0.32,0.181,0.262,0.31,0.162,1.11,1.13,0.998,1.05,0.231,0.513
LOU-NH91,0.971,0.879,0.917,0.868,0.91,0.597,0.581,0.605,0.534,0.807,0.766,0.724,0.773,0.748,0.515,0.473,0.483,0.451,0.608,0.535
NCI-H2405,0.962,,1.03,1.02,1.14,0.21,0.234,0.208,0.208,0.548,0.57,0.507,0.587,0.411,1.05,0.876,1.07,0.994,0.206,0.894
LCLC-97TM1,0.9,0.901,0.876,0.887,0.866,0.98,0.971,1.03,0.776,0.211,0.241,,0.225,0.148,0.9,1.13,0.455,0.261,0.841,0.425
NCI-H596,0.814,0.617,0.764,0.867,0.465,0.574,0.617,0.606,0.554,0.861,0.804,,0.842,0.564,1.03,0.929,1.11,0.995,0.595,1.07
NCI-H727,0.934,0.617,1.08,0.999,1.11,0.396,0.398,0.362,0.442,0.363,0.335,0.352,0.357,0.38,0.742,,1.13,0.704,0.289,0.979
H3255,0.848,0.752,0.881,0.903,0.947,0.371,0.491,0.385,0.387,0.6,0.547,0.5,0.602,0.532,1.15,1.12,0.766,0.619,0.366,0.793
NCI-H1437,1.24,1.19,1.29,1.3,1.04,0.369,0.348,0.384,0.365,0.539,0.414,0.473,0.47,0.301,0.599,0.496,0.495,0.469,0.35,0.486
LU99A,0.789,0.791,0.743,0.879,0.808,0.756,0.499,0.457,0.462,0.548,0.467,,0.503,0.523,1.12,1.23,1.06,1.09,0.659,1.12
HCC-827,1.06,0.899,1.04,1.03,1.06,0.345,0.366,0.301,0.387,0.495,0.491,0.48,0.532,0.506,1.22,1.12,1.05,1.11,0.288,1.08
HCC-366,0.926,0.844,0.956,0.994,0.863,0.679,0.694,0.621,0.584,0.326,0.347,0.246,0.361,0.271,1.13,1.02,1.25,0.866,0.689,
BEN,0.522,0.597,0.607,0.764,0.464,0.296,0.358,0.394,0.304,0.916,0.913,0.783,0.879,0.871,0.755,0.906,1.07,0.641,,0.848
NCI-H23,1.01,0.856,0.973,0.999,0.966,0.925,0.625,0.9,0.743,0.381,0.38,0.37,0.394,0.327,0.988,1.24,1.27,0.949,0.671,1.02
201T,1.11,1.04,,1.15,1.07,0.542,0.604,0.622,0.587,0.691,0.695,0.719,0.772,0.708,1.1,1.06,1.14,1.05,,
NCI-H460,0.986,1.04,1.04,1.03,1.03,0.68,0.508,0.654,0.501,0.163,0.13,0.127,0.0958,0.129,1.14,1.25,1.14,0.469,0.538,1.2
